Experimental data taken from EPA's ToxValDB 9.5 (doi:10.2903/j.efsa.2018.5467).
≈ marks a conversion by molar mass, not a printed value.

How the values were obtained:
Typhlodromus pyri [1] = test: LR50; higher = less toxic; conditions: acute; mortality
Bibionidae = conditions: chronic/long-term; duration: 28 days; other
Tagia sp. = conditions: chronic/long-term; duration: 56 days; reproduction
Apis mellifera = conditions: acute, mortality
Colinus virginianus = conditions: for LD50: acute, oral, mortality
Typhlodromus pyri [2] = conditions: chronic/long-term; reproduction
Daphnia magna = conditions: chronic/long-term; duration: 21 days; other

C#CCOC(=O)[C@@H](C)Oc1ccc(Oc2ncc(Cl)cc2F)cc1 [Clodinafop-propargyl]
LR50 (Typhlodromus pyri [1]): > 90 g/ha | NOEC (Bibionidae): 1.2 mg/L | LC50 (Lepomis macrochirus; acute, duration: 96 hours, mortality): 0.21 µg/mL (≈ 0.6 µM) | NOEC (Lepomis macrochirus; chronic/long-term, duration: 33 days, other): 0.024 mg/L | NOEC (Tagia sp.): 5 mg/kg | LD50 (Apis mellifera; dermal): > 271 µg/piece | LD50 (Apis mellifera; oral, unspecified): > 104 µg/piece | LD50 (Rattus norvegicus; acute, oral, mortality): > 1390 mg/kg-day | NOAEL (Rattus norvegicus; chronic, duration: 2 years, clinical chemistry): 0.03 mg/kg-day | NOAEL (Rattus norvegicus; developmental, development): 5 mg/kg-day | NOAEL (Rattus norvegicus; reproduction developmental, body weight): 3.4 mg/kg-day | LD50 (Colinus virginianus; duration: 5 days, diet): > 1040 mg/kg-day | LD50 (Colinus virginianus): 1460 mg/kg-day | NOEC (Colinus virginianus; reproduction developmental): 48.9 mg/kg-day | NOEC (Typhlodromus pyri [2]): 90 g/ha | NOEC (Daphnia magna): 0.23 mg/L
